According to ChEMBL document CHEMBL1123565, “Synthesis and 5-hydroxytryptamine antagonist activity of 2-[[2-(dimethylamino)ethyl]thio]-3-phenylquinoline and its analogues” (J Med Chem, 1987):
The source made the active and inactive calls. The calls are words filed in the database; no cut-off is given here.

Experiments:
Mus musculus [1] = assay: compound was tested for antagonistic activity against 5-Hydroxytryptamine-induced head shake in mouse after intraperitoneal administration; NA denotes not active.; assay type: functional, organism-based
Rattus norvegicus [2] = assay: compound was tested for antagonistic activity against fenfluramine induced hyperthermia in rat after peroral administration at 50 mg/kg; NA denotes not active.; assay type: functional, organism-based; parameters: dose 50 mg/kg
Rattus norvegicus [3] = assay: Antagonistic activity against fenfluramine induced hyperthermia in rat after peroral administration; assay type: functional; conditions: po, read-out: ID50 (the source's name)
Mus musculus [4] = assay: Antagonistic activity test against 5-Hydroxytryptamine-induced head shake in mouse after intraperitoneal administration; assay type: functional; conditions: ip, read-out: ID50 (the source's name)
Mus musculus [5] = assay: compound was tested for antagonistic activity against 5-Hydroxytryptamine-induced head shake in mouse after intraperitoneal administration; Value ranges from 0.02-0.9; assay type: functional; conditions: ip, read-out: ID50 (the source's name)
Rattus norvegicus [6] = assay: compound was tested for antagonistic activity against fenfluramine induced hyperthermia in rat after peroral administration 0.02-0.3; assay type: functional; conditions: po, read-out: ID50 (the source's name)
Mus musculus [7] = assay: compound was tested for antagonistic activity against 5-Hydroxytryptamine-induced head shake in mouse after intraperitoneal administration; Value ranges from 1.0-2.5; assay type: functional; conditions: ip, read-out: ID50 (the source's name)
Rattus norvegicus [8] = assay: compound was tested for antagonistic activity against fenfluramine induced hyperthermia in rat after peroral administration; Value ranges from 0.3-4.3; assay type: functional; conditions: po, read-out: ID50 (the source's name)
Mus musculus [9] = species: Mus musculus; assay: compound was tested for antagonistic activity against 5-Hydroxytryptamine-induced head shake in mouse; assay type: functional; conditions: read-out: ID50 (the source's name)
Mus musculus [10] = assay: compound was tested for antagonistic activity against 5-Hydroxytryptamine-induced head shake in mouse after intraperitoneal administration; NA denotes not active at a dose of 50 mg/kg.; assay type: functional, organism-based; parameters: dose 50 mg/kg
Rattus norvegicus [11] = assay: compound was tested for antagonistic activity against fenfluramine induced hyperthermia in rat after peroral administration at 50 mg/kg; assay type: functional, organism-based; parameters: dose 50 mg/kg
Rattus norvegicus [12] = assay: compound was tested for antagonistic activity against fenfluramine induced hyperthermia in rat after peroral administration; NA denotes not active at a dose of 50 mg/kg.; assay type: functional, organism-based; parameters: dose 50 mg/kg
Mus musculus [13] = assay: compound was tested for antagonistic activity against 5-Hydroxytryptamine-induced head shake in mouse after intraperitoneal administration; Value ranges from 0.35-0.77; assay type: functional; conditions: ip, read-out: ID50 (the source's name)
Rattus norvegicus [14] = assay: compound was tested for antagonistic activity against fenfluramine induced hyperthermia in rat after peroral administration; Value ranges from 0.1-1.3; assay type: functional; conditions: po, read-out: ID50 (the source's name)
Rattus norvegicus [15] = assay: compound was tested for antagonistic activity against fenfluramine induced hyperthermia in rat after peroral administration at a dose of 50 mg/kg; NA denotes not active.; assay type: functional, organism-based; parameters: dose 50 mg/kg
Rattus norvegicus [16] = species: Rattus norvegicus; assay: compound was tested for antagonistic activity against fenfluramine induced hyperthermia in rat; assay type: functional; conditions: read-out: ID50 (the source's name)

Row | SMILES | ED50 (Rattus norvegicus [3]) [mg/kg] | ED50 (Mus musculus [4]) [mg/kg] | other results
1 | Cc1cccc2cc(-c3ccccc3)c(SCCN(C)C)nc12 |  |  | ID50 (Mus musculus [1]): inactive; ID50 (Rattus norvegicus [2]): inactive
2 | CN(C)CCSc1nc2ccccc2cc1-c1ccccn1.O=C(O)C(=O)O | 50 | 3.4 | 
3 | CN(C)CCSc1nc2ccccc2cc1-c1ccsc1.O=C(O)C(=O)O | 7.9 | 3.4 | 
4 | O=C(c1ccc(F)cc1)C1CCN(CCn2c(=O)[nH]c3ccccc3c2=O)CC1 [KETANSERIN] |  |  | ED50 (Mus musculus [5]): 0.5 mg/kg; ED50 (Rattus norvegicus [6]): 0.1 mg/kg
5 | Cc1c(C(C)C)c(SCCN(C)C)nc2ccccc12.O=C(O)C(=O)O |  | 50 | ID50 (Rattus norvegicus [2]): inactive
6 | CN(C)CCSc1nc2ccccc2cc1C1CCCC1.O=C(O)C(=O)O |  | 50 | ID50 (Rattus norvegicus [2]): inactive
7 | CN(C)CCSc1nc2ccccc2cc1-c1ccc(F)cc1.Cl | 2.9 | 1.7 | 
8 | CCCOc1ccc2cc(-c3ccccc3)c(SCCN(C)C)nc2c1.O=C(O)C(=O)O | 50 | 50 | 
9 | CN(C)CCSc1nc2ccccc2cc1-c1ccccc1.Cl |  |  | ED50 (Mus musculus [7]): 1.6 mg/kg; ED50 (Rattus norvegicus [8]): 1.2 mg/kg
10 | CN(C)CCSc1nc2ccccc2cc1-c1ccccc1Cl.Cl | 9.9 | 50 | 
11 | COc1ccccc1-c1cc2ccccc2nc1SCCN(C)C.Cl | 4.6 | 1.2 | 
12 | Cc1ccc(-c2cc3ccccc3nc2SCCN(C)C)cc1.Cl | 4.2 | 1.9 | 
13 | CN(C)CCSc1nc2ccccc2cc1-c1cccc(F)c1.Cl | 4.6 | 2.5 | 
14 | CN(C)CCSc1nc2ccccc2cc1-c1ccccc1F.Cl | 7.2 | 1.9 | 
15 | CN(C)CCSc1nc2ccccc2cc1-c1ccc(Br)cc1.Cl | 50 | 19.1 | 
16 | Cl.NCCSc1nc2ccccc2cc1-c1ccccc1 | 4.8 | 50 | 
17 | CN(C)CCSc1nc2ccc(Br)cc2cc1-c1ccccc1.O=C(O)C(=O)O | 6.7 | 50 | 
18 | COc1ccc2nc(SCCN(C)C)c(-c3ccccc3)cc2c1.O=C(O)C(=O)O | 8.3 | 50 | 
19 | CCCc1cc2ccccc2nc1SCCN(C)C.O=C(O)C(=O)O |  |  | ID50 (Rattus norvegicus [2]): inactive; ED50 (Mus musculus [9]): 5 mg/kg
20 | COc1ccc2cc(-c3ccccc3)c(SCCN(C)C)nc2c1.Cl | 3.1 | 50 | 
21 | CCC(C)c1cc2ccccc2nc1SCCN(C)C.O=C(O)C(=O)O (stereo not drawn) | 50 | 1.5 | 

Row | SMILES | ED50 (Rattus norvegicus [3]) [mg/kg] | ED50 (Mus musculus [4]) [mg/kg] | other results
22 | CN(C)CCSc1nc2ccc(Cl)cc2cc1-c1ccccc1.O=C(O)C(=O)O | 50 | 50 | 
23 | CCCCc1cc2ccccc2nc1SCCN(C)C.Cl | 50 | 2.3 | 
24 | CN(C)CCSc1nc2ccccc2cc1-c1cccs1.O=C(O)C(=O)O | 6.9 | 4.9 | 
25 | CSc1ccc2nc(SCCN(C)C)c(-c3ccccc3)cc2c1.O=C(O)C(=O)O | 10.3 | 50 | 
26 | CSc1ccc2cc(-c3ccccc3)c(SCCN(C)C)nc2c1 | 50 |  | ID50 (Mus musculus [1]): inactive
27 | Cc1cccc(-c2cc3ccccc3nc2SCCN(C)C)c1.Cl | 5.9 | 1.7 | 
28 | CN(C)CCSc1nc2cc(N(C)C)ccc2cc1-c1ccccc1.O=C(O)C(=O)O | 50 |  | ID50 (Mus musculus [1]): inactive
29 | CCN(CC)CCSc1nc2ccccc2cc1-c1ccccc1.Cl | 50 | 25 | 
30 | CCCOc1ccc(-c2cc3ccccc3nc2SCCN(C)C)cc1.Cl | 5.3 | 0.5 | 
31 | CC(c1ccccc1)c1cc2ccccc2nc1SCCN(C)C.O=C(O)C(=O)O (stereo not drawn) |  | 50 | ID50 (Rattus norvegicus [2]): inactive
32 | Cc1c(-c2ccsc2)c(SCCN(C)C)nc2ccccc12.O=C(O)C(=O)O | 50 | 3.1 | 
33 | CCc1cc2ccccc2nc1SCCN(C)C.Cl | 50 | 50 | 
34 | Cc1ccc2cc(-c3ccccc3)c(SCCN(C)C)nc2c1.O=C(O)C(=O)O | 50 | 50 | 
35 | Cc1cc2ccccc2nc1SCCN(C)C |  |  | ID50 (Mus musculus [10]): inactive; ID50 (Rattus norvegicus [11]): inactive
36 | Cc1c(-c2ccccc2)c(SCCN(C)C)nc2ccccc12.O=C(O)C(=O)O | 50 | 6.2 | 
37 | CN(C)CCSc1nc2ccccc2cc1-c1ccc(Cl)cc1.Cl |  | 9.1 | ID50 (Rattus norvegicus [12]): inactive
38 | Cc1ccccc1-c1cc2ccccc2nc1SCCN(C)C.Cl | 50 | 3 | 
39 | CN(C)CCSc1nc2ccccc2c(C(N)=O)c1-c1ccccc1 |  |  | ID50 (Mus musculus [1]): inactive; ID50 (Rattus norvegicus [2]): inactive
40 | CC[C@@H](CO)NC(=O)[C@@H]1C=C2c3cccc4c3c(cn4C)C[C@H]2N(C)C1 [METHYSERGIDE] |  |  | ED50 (Mus musculus [13]): 0.52 mg/kg; ED50 (Rattus norvegicus [14]): 0.4 mg/kg
41 | CN(C)CCSc1nc2ccccc2cc1Cc1ccccc1.Cl |  | 50 | ID50 (Rattus norvegicus [2]): inactive
42 | Cc1c(-c2ccc(F)cc2)c(SCCN(C)C)nc2ccccc12.O=C(O)C(=O)O | 11.1 | 50 | 

Row | SMILES | ED50 (Rattus norvegicus [3]) [mg/kg] | ED50 (Mus musculus [4]) [mg/kg] | other results
43 | COc1cccc(-c2cc3ccccc3nc2SCCN(C)C)c1.Cl | 5.1 | 25 | 
44 | CCN(C)CCSc1nc2ccccc2cc1-c1ccccc1.O=C(O)C(=O)O |  | 50 | 
45 | COc1c(-c2ccccc2C)c(SCCN(C)C)nc2ccccc12.Cl | 7.2 | 50 | 
46 | COc1c(-c2ccccc2)c(SCCN(C)C)nc2ccccc12.O=C(O)C(=O)O | 5.5 | 3.5 | 
47 | CN(C)CCSc1nc2ccccc2cc1C(C)(C)C.O=C(O)C(=O)O |  | 50 | ID50 (Rattus norvegicus [2]): inactive
48 | COc1c(-c2ccsc2)c(SCCN(C)C)nc2ccccc12.O=C(O)C(=O)O |  | 50 | ID50 (Rattus norvegicus [2]): inactive
49 | CN(C)CCSc1nc2ccccc2cc1-c1ccc(O)cc1.Cl | 50 | 7.9 | 
50 | CC(C)c1cc2ccccc2nc1SCCN(C)C.Cl | 2.7 | 2.6 | 
51 | COc1ccc(OC)c(-c2cc3ccccc3nc2SCCN(C)C)c1.Cl | 4.2 | 3 | 
52 | Cc1ncc(-c2cc3ccccc3nc2SCCN(C)C)s1.O=C(O)C(=O)O | 6.9 | 4.9 | 
53 | CN(C)CCSc1nc2ccccc2cc1C1CCCCC1.Cl | 50 | 50 | 
54 | COc1ccccc1-c1cc2cc(C)ccc2nc1SCCN(C)C.O=C(O)C(=O)O | 50 | 50 | 
55 | CN(C)CCSc1nc2ccccc2cc1C1CC1.O=C(O)C(=O)O | 25 | 3.4 | 
56 | COc1ccccc1-c1c(SCCN(C)C)nc2ccccc2c1C.O=C(O)C(=O)O | 50 | 50 | 
57 | CN(C)CCSc1nc2ccccc2cc1-c1ccc(C#N)cc1.Cl | 10.7 | 1.2 | 
58 | CNCCSc1nc2ccccc2cc1-c1ccccc1.Cl | 7 | 6.2 | 
59 | COc1c(-c2ccc(F)cc2)c(SCCN(C)C)nc2ccccc12.O=C(O)C(=O)O | 3.3 | 50 | 
60 | CN(C)CCSc1nc2ccccc2cc1-c1ccc(C(F)(F)F)cc1.Cl |  | 50 | ID50 (Rattus norvegicus [15]): inactive
61 | CSc1ccc(-c2cc3ccccc3nc2SCCN(C)C)cc1.Cl |  | 10 | ED50 (Rattus norvegicus [16]): 7.8 mg/kg
62 | COc1ccc(-c2cc3ccccc3nc2SCCN(C)C)cc1.Cl | 28 | 5.9 | 
